Assay results as given in publication PMC5841303, “In silico screening for human norovirus antivirals reveals a novel non-nucleoside inhibitor of the viral polymerase” (Scientific Reports, 2018).
Read-outs that look alike come from different tables or passages of the source.

Assays:
[1] = Observed compound solubility; assay type: physicochemical; settings: assay conditions / 100% DMSO
Procedure: Therefore, they were counter-screened at 100 µM in a secondary gel-based assay (Supplementary Fig. S1).
To confirm RdRp inhibition and to exclude any potential false positives from the first fluorescence RdRp assay, the eight selected compounds (Fig. 4C) were then assessed using a gel-shift enzyme activity assay.
Dose-dependent inhibitory response curves were used to establish IC50 values for the five test compounds (Table 2). […] Therefore, 42b was too insoluble to attain a reliable confidence interval in the dose-response experiments and was not examined further. However, from the other four compounds, hit 11 and its phenyl derivative 54 gave the lowest IC50 values, 3–5 fold improved compared with 13 and its derivative 42a, confirming increased RdRp inhibitory activity associated with this scaffold.

[2] = target: human norovirus Sydney 2012 RdRp (Norovirus GII.4 (Norwalk virus, human norovirus), UniProt K4L8Z7); assay: Fluorescent de novo RdRp activity assay (PicoGreen, poly(C) template); assay type: biochemical; settings: for inhibition at 100 µM: read-out: inhibition of human norovirus RdRp activity, 100 µM
Procedure: The 62 compounds identified in silico were screened for inhibition of norovirus RdRp activity using an in vitro fluorescent, de novo RdRp assay. Compounds were tested at fixed concentrations of 10 µM and 100 µM, and compared to mock treated samples containing the vehicle only (0.5% DMSO [vol/vol]) (Fig. 4A,B). […] For certain compounds, significant insolubility was observed, coupled with either inherent fluorescence quenching (positive y-axis values on Fig. 4A,B) or enhancement of the fluorescence signal (negative y-axis values).
The newly synthesised compounds, including the re-prepared hit 13 and some synthesis intermediates (Table 1), were initially evaluated on norovirus Sydney 2012 RdRp activity in vitro using a quantitative fluorescent assay. Compounds were tested at a fixed concentration of 10 μM and compared to the relative activity of mock treated samples.
Recombinant calicivirus RdRps (GenBank accession numbers) norovirus GII.Pe/GII.4 Sydney 2012 (KT239579), MNV GV CW1 (DQ285629), RHDV Czech V351 (KF594473.1), and SaV GI.1 Mc114 (AY237422) were expressed and purified as described previously[60],[61]. RdRp resistance mutants were generated using the QuikChange site-directed mutagenesis kit (Agilent Technologies, Santa Clara, CA, USA) and confirmed by Sanger sequencing.
(§1) Fluorescent RdRp activity assays were carried out as previously described[14],[62]. Briefly, RdRp activity was quantified by monitoring the formation of double-stranded RNA (dsRNA) from a single stranded homopolymeric template, poly(C) (Sigma Aldrich, St Louis, MO, USA), using the fluorescent dye PicoGreen (Life Technologies, Carlsbad, CA, USA). RdRp assays were performed in 384-well plates, and each reaction mixture contained 400 ng enzyme, 45 µM GTP, 10 ng/µL poly(C) RNA, 2.5 mM MnCl2, 5 mM dithiothreitol, (DTT), 0.01% bovine serum albumin (BSA), and 0.005% Tween 20 in 20 mM Tris-HCl, pH 7.5, with a final reaction volume of 25 µL. The previous published norovirus NNI NIC02 was used as a positive control. RdRps were incubated for 10 mins at 30 °C in the presence of the test compounds or the compound vehicle DMSO (0.5% vol/vol) before addition into the reaction mixture, which was then allowed to run 15 min at 30 °C then terminated with 10 mM EDTA, followed by PicoGreen staining and dsRNA quantitation. GraphPad Prism V6.05 (La Jolla, CA, USA) was used to plot the IC50 values. In cases where fluorescent enhancement was recorded for a compound instead of inhibition, a secondary gel-based polymerase activity assay was used as a counter-screen as described below, to exclude the possibility of RdRp activity enhancement (Supplementary Fig. S1). Primed elongation activity was examined in a gel-based assay as previously described[16],[63] using the RNA template (PE44-NoV, Fig. 4D). Gels were imaged using BioRad (Hercules, CA, U.SA) Geldoc Universal Hood II, running BioRad Image Lab software, V4.1, build 16. Antagonism was calculated using Compusyn software V1.0[59]. 54 and PPNDS (4:1 ratio) were tested alone and together against norovirus Sydney 2012 RdRp.

norovirus RdRp = assay: Counter-screen gel-shift RdRp assay (primed elongation of PE44-NoV template); assay type: biochemical, human norovirus; settings: for RdRp activity enhancement in gel-based counter-screen: 100 µM; for inhibition of primed elongation activity (gel-shift): fixed concentration of 100 µM
Procedure: In this assay, a 32 nucleotide RNA template (PE44-NoV) is extended to 44 nucleotides in the presence of an active RdRp[16]. […] Inhibition of primed elongation of the PE44-NoV template was examined at a fixed concentration of 100 µM (Fig. 4D). In the absence of inhibition (0.5% DMSO vehicle only) the RNA template was extended to 44 nucleotides (Fig. 4D), evidenced by an upward gel shift and the appearance of the second, higher band.
as §1

MNV = MNV plaque reduction assay in cell culture; assay type: cell-based, murine norovirus
Procedure: As mentioned above, the only robust cellular assay available for the evaluation of potential norovirus inhibitors is the closely related MNV assay. […] Consequently, 54 was further assessed to determine the IC50 value against MNV RdRp activity using an in vitro fluorescent assay. […] 54 was then assessed for cytotoxicity against RAW264.7 mouse macrophage cells using a cell viability assay. […] Using the plaque reduction assay, the inhibitory effects of 54 (0.5–50 µM) were examined against MNV plaque formation in cell culture. […] Compound solubility and its cell-membrane permeability properties could be further improved with structure-activity relationship enhancement of the 54 scaffold to facilitate cellular uptake, and therefore to increase antiviral efficacy. Work on this aspect is ongoing, and it will be reported in due course.
MNV-1 (CW1) culture assays were performed as previously described. Replication was examined using plaque assays[58],[64],[65]. Cytotoxicity was examined using a CellTitre Blue (Promega, Madison, WI, USA) viability assay as described previously.

[3] = 100 µM, initial screen of purchased compounds
[4] = read-out: inhibition of norovirus Sydney 2012 RdRp activity, 10 µM, secondary screen of newly synthesised compounds
[5] = 10 µM, secondary screen of newly synthesised compounds
[6] = read-out: inhibition of human norovirus RdRp activity, 10 µM, initial screen of purchased compounds
[7] = initial screen of purchased compounds
[8] = 10 µM, initial screen of purchased compounds

## O=C(O)c1ccc2nc(-c3cccc(-c4nc5ccc(C(=O)O)cc5[nH]4)c3)[nH]c2c1 [AJ-077/33270018]
[1]
  solubility (observation): insolubility
[2]; [3]
  inhibition of human norovirus RdRp activity: apparent RdRp enhancement
Norovirus RdRp
  RdRp activity enhancement in gel-based counter-screen: not seen in the gel-based assay

## O=C(O)c1ccc(-c2ccc(/C=C3\SC(=O)N(CC(=O)N4CCOCC4)C3=O)o2)cc1 [Compound 28]
[2]; [4]
  inhibition at 10 µM: ~50%

## O=C(CN1C(=O)S/C(=C\c2ccc(-c3ccccc3)o2)C1=O)N1CCOCC1 [Compound 23a]
[2]; [5]
  inhibition of norovirus Sydney 2012 RdRp activity: complete loss of activity

## Cc1ccc(N2NC(=O)C(=Cc3ccc(-c4ccc(S(=O)(=O)Nc5nccs5)cc4)o3)C2=O)cc1 [Compound 11]
MNV; 10 µM, read-out: inhibition of MNV plaque formation
  inhibition at 10 µM: 37.1%
MNV; 100 µM
  cytotoxicity seen in plaque assay: cytotoxic
[2]
  IC50: 5 µM
[2]; [6]
  inhibition at 10 µM: > 25%
[2]; [7]
  inhibition at 100 µM: > 50%
Norovirus RdRp
  inhibition of primed elongation activity (gel-shift): complete inhibition

## Cc1ccccc1-c1ccc(/C=C2\SC(=O)N(CC(=O)N3CCOCC3)C2=O)o1 [Compound 23c]
[2]; [5]
  inhibition of norovirus Sydney 2012 RdRp activity: complete loss of activity

## COC(=O)c1ccc(-c2ccc(/C=C3\SC(=O)N(CC(=O)N4CCCCC4)C3=O)o2)cc1 [Compound 24b]
[2]; [4]
  inhibition at 10 µM: 60%
Norovirus RdRp
  inhibition of primed elongation activity (gel-shift): no appreciable effect

## O=C(CN1C(=O)S/C(=C\c2ccc(-c3ccccc3)o2)C1=O)N1CCCCC1 [Compound 24a]
[2]; [5]
  inhibition of norovirus Sydney 2012 RdRp activity: loss of inhibitory activity

## O=C(O)c1ccccc1-c1ccccc1C(=O)Nc1cccc(O)c1 [Compound 6]
[2]; [6]
  inhibition at 10 µM: > 25%
[2]; [7]
  inhibition at 100 µM: > 50%

## COC(=O)c1ccc(-c2ccc(/C=C3\SC(=O)N(CC(=O)N4CCOCC4)C3=O)o2)c(C)c1 [Compound 39d]
[2]; [5]
  inhibition of norovirus Sydney 2012 RdRp activity: complete loss of activity

## O=C(C1=C(O)C(=O)N(Cc2ccco2)C1c1cccc(O)c1)c1ccc2c(c1)OCCO2 (stereo not drawn) [Compound 8]
[2]; [6]
  inhibition at 10 µM: > 25%
[2]; [7]
  inhibition at 100 µM: > 25%

## O=C(Nc1ccc(O)c(-c2nc3ccccc3o2)c1)c1cccnc1 [AP-970/12851847]
[1]
  solubility (observation): insolubility
[2]; [3]
  inhibition of human norovirus RdRp activity: apparent RdRp enhancement
Norovirus RdRp
  RdRp activity enhancement in gel-based counter-screen: not seen in the gel-based assay

## C/C(=N\NC(=O)c1ccccc1O)c1ccc(O)cc1O [Compound 12]
[2]; [6]
  inhibition at 10 µM: > 25%
[2]; [7]
  inhibition at 100 µM: > 25%

## COC(=O)c1ccc(-c2ccc(/C=C3\SC(=O)N(CC(=O)Nc4ccccc4)C3=O)o2)cc1 [Compound 42b]
[1]
  solubility (observation): significant solubility issues
[2]; [4]
  inhibition at 10 µM: > 50%
Norovirus RdRp
  inhibition of primed elongation activity (gel-shift): near complete abolishment of norovirus RdRp activity

## CC(NC(=O)CCC(=O)Nc1ccccc1O)c1ccccc1 (stereo not drawn) [Compound 7]
[2]; [6]
  inhibition at 10 µM: > 25%
[2]; [7]
  inhibition at 100 µM: > 50%

## Cc1cc(C(=O)O)ccc1-c1ccc(/C=C2\SC(=O)N(CC(=O)N3CCCCC3)C2=O)o1 [Compound 40e]
[2]; [5]
  inhibition of norovirus Sydney 2012 RdRp activity: abolished the activity

## O=C1NC(=O)/C(=C/c2ccc(-c3ccccc3)o2)S1 [Compound 18a]
[2]; [5]
  inhibition of norovirus Sydney 2012 RdRp activity: lacked RdRp inhibitory activity

## COC(=O)c1ccc(-c2ccc(/C=C3\SC(=O)N(CC(=O)N4CCOCC4)C3=O)o2)cc1 [Compound 23b]
[2]; [5]
  inhibition of norovirus Sydney 2012 RdRp activity: complete loss of activity

## COc1ccc(N2C(=O)c3ccc(C(=O)O)cc3C2=O)cc1NC(=O)c1ccccc1 [Compound 9]
[2]; [6]
  inhibition at 10 µM: > 25%
[2]; [7]
  inhibition at 100 µM: > 50%

## Cc1ccc(NC(=O)CSc2n[nH]c(-c3ccccc3O)n2)c(C)c1 [Compound 10]
[2]; [6]
  inhibition at 10 µM: > 25%
[2]; [7]
  inhibition at 100 µM: > 25%

## Cc1ccc(N2NC(=O)/C(=C\c3ccc(-c4ccc(S(=O)(=O)Nc5ccccc5)cc4)o3)C2=O)cc1 [Compound 55]
Norovirus RdRp
  inhibition of primed elongation activity (gel-shift): minimal inhibition

## O=C1NC(=O)/C(=C/c2ccc(-c3ccc(C(=O)O)cc3)o2)S1 [Compound 27]
[2]; [5]
  inhibition of norovirus Sydney 2012 RdRp activity: lacked RdRp inhibitory activity

## Cc1ccccc1-c1ccc(/C=C2\SC(=O)NC2=O)o1 [Compound 18c]
[2]; [5]
  inhibition of norovirus Sydney 2012 RdRp activity: lacked RdRp inhibitory activity

## COC(=O)c1ccc(-c2ccc(/C=C3\SC(=O)N(CC(=O)N4CCCCC4)C3=O)o2)c(C)c1 [Compound 24d]
[2]; [4]
  inhibition at 10 µM: 25%

## CCC(O)CC(C(=O)NNc1ccccc1)C(=O)NNc1ccccc1 (stereo not drawn) [AE-562/12222591]
[1]
  solubility (observation): precipitated heavily in 100% DMSO
[2]; [8]
  inhibition of human norovirus RdRp activity: over 25%
[2]; [3]
  inhibition of human norovirus RdRp activity: over 25%

## COc1cccc(NC(=O)Cn2nc(C(F)(F)F)cc2C2CC2)c1 [AK-968/41925073]
[1]
  solubility (observation): precipitated heavily in 100% DMSO
[2]; [8]
  inhibition of human norovirus RdRp activity: over 25%
[2]; [3]
  inhibition of human norovirus RdRp activity: over 25%

## Cc1cc(C(=O)O)ccc1-c1ccc(/C=C2\SC(=O)N(CC(=O)N3CCOCC3)C2=O)o1 [Compound 13]
MNV; 100 µM, read-out: inhibition of MNV plaque formation
  inhibition at 100 µM: 21%
[2]
  IC50: 15 µM
[2]; [6]
  inhibition at 10 µM: > 25%
[2]; [7]
  inhibition at 100 µM: > 50%
[2]; [4]
  inhibition at 10 µM: 25%
Norovirus RdRp
  inhibition of primed elongation activity (gel-shift): complete inhibition

## Cc1ccccc1-c1ccc(/C=C2\SC(=O)N(CC(=O)N3CCCCC3)C2=O)o1 [Compound 24c]
[2]; [5]
  inhibition of norovirus Sydney 2012 RdRp activity: loss of inhibitory activity
